Laboratory results published in ChEMBL document CHEMBL3813687, “A combined ligand- and structure-based approach for the identification of rilmenidine-derived compounds which synergize the antitumor effects of doxorubicin” (Bioorg Med Chem, 2016).
Activity calls are given as the source filed them. The calls are words filed in the database; no cut-off is given here.

What was measured:
[1] = target: T1, Alpha-2A adrenergic receptor (Homo sapiens, UniProt P08913); assay: Intrinsic activity at recombinant human alpha2A adrenoreceptor expressed in CHOK1 cell membrane incubated for 30 mins by [35S]GTPgammaS binding assay relative to adrenaline; type: cell membranes; details: CHO-K1, human, 0.5 h; read-out: Intrinsic activity
T1 sequence (P08913 whole entry): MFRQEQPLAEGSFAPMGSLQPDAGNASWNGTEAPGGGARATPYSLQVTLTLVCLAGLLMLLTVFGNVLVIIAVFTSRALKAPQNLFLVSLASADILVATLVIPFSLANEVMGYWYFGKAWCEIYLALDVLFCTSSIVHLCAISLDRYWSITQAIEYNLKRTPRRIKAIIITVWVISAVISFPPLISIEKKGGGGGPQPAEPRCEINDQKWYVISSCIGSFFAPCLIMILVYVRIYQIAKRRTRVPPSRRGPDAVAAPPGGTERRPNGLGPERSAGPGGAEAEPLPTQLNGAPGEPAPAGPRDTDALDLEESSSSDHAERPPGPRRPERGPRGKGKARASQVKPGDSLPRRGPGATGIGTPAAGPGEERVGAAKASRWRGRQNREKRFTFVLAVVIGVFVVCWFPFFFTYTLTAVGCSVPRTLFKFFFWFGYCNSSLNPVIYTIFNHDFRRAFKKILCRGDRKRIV

[2] = Displacement of [3H]-clonidine from Imidazoline-1 receptor in bovine chromaffin cell membranes incubated for 40 mins in presence of RX821002; design: species or system Bos taurus
K562 [3] = assay: Antiproliferative activity against human K562 cells assessed as inhibition of cell survival after 48 hrs by MTT assay; type: functional, cell-based; details: K562, 48 h
K562 [4] = assay: Induction of apoptosis in human K562 cells assessed as early apoptotic cells at 300 uM up to 48 hrs by Annexin V-FITC/propidium iodide staining based flow cytometry; type: functional, cell-based
Nischarin [5] = target: T2, Nischarin (Rattus norvegicus, UniProt Q4G017); assay: Displacement of [125I]PIC from Imidazoline-1 receptor in rat PC12 cell membrane incubated for 30 mins by gamma counting method; type: cell membranes, PC-12
T2 sequence (Q4G017 whole entry): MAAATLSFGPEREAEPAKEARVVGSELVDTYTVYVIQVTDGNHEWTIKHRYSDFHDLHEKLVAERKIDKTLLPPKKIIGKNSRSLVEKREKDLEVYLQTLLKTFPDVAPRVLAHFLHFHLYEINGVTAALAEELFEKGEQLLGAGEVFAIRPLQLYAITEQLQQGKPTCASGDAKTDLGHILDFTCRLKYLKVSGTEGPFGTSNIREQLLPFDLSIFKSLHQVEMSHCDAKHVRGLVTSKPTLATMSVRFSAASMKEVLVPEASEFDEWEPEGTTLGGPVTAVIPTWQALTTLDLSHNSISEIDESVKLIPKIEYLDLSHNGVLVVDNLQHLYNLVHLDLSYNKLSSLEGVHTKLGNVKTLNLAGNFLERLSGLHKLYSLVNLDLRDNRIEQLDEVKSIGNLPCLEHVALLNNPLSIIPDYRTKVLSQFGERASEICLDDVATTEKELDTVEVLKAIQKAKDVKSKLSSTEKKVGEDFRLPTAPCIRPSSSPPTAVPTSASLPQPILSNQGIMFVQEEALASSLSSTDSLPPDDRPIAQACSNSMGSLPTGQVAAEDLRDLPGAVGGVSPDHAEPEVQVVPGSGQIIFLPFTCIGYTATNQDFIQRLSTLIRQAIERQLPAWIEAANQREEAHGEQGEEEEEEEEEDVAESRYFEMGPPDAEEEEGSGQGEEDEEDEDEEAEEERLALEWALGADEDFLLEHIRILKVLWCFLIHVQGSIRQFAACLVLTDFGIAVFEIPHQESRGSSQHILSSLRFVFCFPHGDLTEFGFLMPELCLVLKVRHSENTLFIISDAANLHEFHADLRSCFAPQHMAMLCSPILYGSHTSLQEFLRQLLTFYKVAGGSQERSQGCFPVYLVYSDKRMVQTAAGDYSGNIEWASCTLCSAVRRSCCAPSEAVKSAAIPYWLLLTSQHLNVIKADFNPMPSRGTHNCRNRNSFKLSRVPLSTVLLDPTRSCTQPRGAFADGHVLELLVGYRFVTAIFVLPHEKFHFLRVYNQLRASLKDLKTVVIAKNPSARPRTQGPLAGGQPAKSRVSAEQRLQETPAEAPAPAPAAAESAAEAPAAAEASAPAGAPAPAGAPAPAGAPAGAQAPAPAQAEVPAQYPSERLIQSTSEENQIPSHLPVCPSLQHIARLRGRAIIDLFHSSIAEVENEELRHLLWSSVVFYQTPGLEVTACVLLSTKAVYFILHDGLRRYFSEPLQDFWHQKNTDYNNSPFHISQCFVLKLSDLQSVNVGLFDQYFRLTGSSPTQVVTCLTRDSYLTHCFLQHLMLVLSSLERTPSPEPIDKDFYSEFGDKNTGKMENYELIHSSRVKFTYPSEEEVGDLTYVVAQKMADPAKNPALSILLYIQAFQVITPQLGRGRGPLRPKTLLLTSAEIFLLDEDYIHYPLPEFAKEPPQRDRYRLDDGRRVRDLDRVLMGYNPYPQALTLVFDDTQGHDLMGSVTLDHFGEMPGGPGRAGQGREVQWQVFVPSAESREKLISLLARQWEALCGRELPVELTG

[6] = Displacement of [3H]-clonidine from Imidazoline-1 receptor in bovine adrenal medullary plasma membrane incubated for 40 mins in presence of RX821002; design: species or system Bos taurus
[7] = target: T1, Alpha-2A adrenergic receptor; assay: Displacement of [3H]RS-79948-197 from recombinant human alpha2A adrenoreceptor expressed in CHOK1 cell membrane by scintillation counting method; type: cell membranes, CHO-K1; details: read-out: Ki(app)
Nischarin [8] = target: T2, Nischarin; assay: Displacement of [125I]PIC from Imidazoline-1 receptor in rat PC12 cell membrane by gamma counting method; type: cell membranes, PC-12

Cc1cccc([C@H](C)c2c[nH]cn2)c1C [DEXMEDETOMIDINE]
Emax [1]: 63%

CCC1CCC(NC(C2CC2)C2CC2)=N1 (centres undefined)
pKi [2]: 6.77

CCC1(C2=NCCN2)Cc2ccccc2O1 (centres undefined) [EFAROXAN]
IC50 (K562 [3]): > 300 µM | Activity (K562 [4]): inactive | Emax [1]: -13%

CC1CCC(NC(C2CC2)C2CC2)=N1 (centres undefined)
pKi [2]: 5.8

CC(Oc1c(Cl)cccc1Cl)C1=NCCN1 (centres undefined) [LOFEXIDINE]
Ki (Nischarin [5]): 0.00562 µM

NC1=NCC(COc2ccccc2Br)O1 (centres undefined)
pKi [6]: 8.19

CCCCCn1c(C)cc(NCc2ccc(Cl)cc2)cc1=O
Ki [7]: 80 µM | IC50 (K562 [3]): > 300 µM | Emax [1]: 0%

CCCCCn1c(C)cc(NCc2ccccc2)cc1=O
Ki [7]: 41 µM | IC50 (K562 [3]): > 300 µM | Emax [1]: -12%

Clc1cc(I)cc(Cl)c1N=C1NCCN1 [PI-CLONIDINE]
Ki (Nischarin [5]): 0.000794 µM

Cc1cc(NCc2ccc(C(F)(F)F)cc2)cc(=O)n1CC(C)C
Ki [7]: 58 µM | IC50 (K562 [3]): 222 µM | Emax [1]: -6%

N#CSc1ccc2oc(C3=NCCN3)cc2c1
pKi [2]: 5.6

Cc1cc(NCCC(C)C)cc(=O)n1CCC(C)C
Ki [7]: 52 µM | IC50 (K562 [3]): 128 µM | Emax [1]: -17%

C(=C\c1ccccc1)/C1=NCCN1 [TRACIZOLINE]
Ki (Nischarin [8]): 0.0191 µM

Clc1cccc2c1CN(NC1=NCCN1)C2
Ki (Nischarin [5]): 0.0282 µM

c1ccc2c(c1)OCC(C1=NCCN1)O2 (centres undefined) [IDAZOXAN]
Ki (Nischarin [8]): 1.26 µM

Cc1cc(NCCC(C)C)cc(=O)n1Cc1ccccc1
Ki [7]: 110 µM | IC50 (K562 [3]): > 300 µM | Emax [1]: -2%

CC(CC1=NCCN1)c1ccccc1 (centres undefined)
Ki (Nischarin [8]): 7.24 µM
